These results are taken from US11013696B2, “Lipids and lipid compositions for the delivery of active agents” (Novartis AG, priority 2013, dated 2021).

The data set can be described thus: Percent encapsulation of mRNA in lipid nanoparticles (Quant-iT Ribogreen). Format: physicochemical. The conditions noted are these: Table 2; leptin mRNA in LNP with the cationic lipid. As to the method: All equipment and disposable supplies are certified free of RNase activity by the manufacturer or rendered RNase free by use of the RNaseZap reagent (LifeTechnologies). mRNA is encapsulated at a cationic lipid amine to mRNA phosphate (N:P) molar ratio of 4:1. Lipids (cationic lipid, DSPC, cholesterol and lipidated PEG or stealth lipid) are dissolved in ethanol. The molar ratios are 40:10:38:2, respectively. The mixture is sonicated briefly, then gently agitated for 5 minutes and then maintained at 37° C. until use. mRNA is exchanged into citrate buffer pH 5.8-6.0 by use of Amicon Ultra-15 centrifugal concentrators, and the final concentration is adjusted to 0.5 mg/ml and held at 37° C. until use. An equal volume of lipids in ethanol, mRNA in citrate buffer, and citrate buffer alone are drawn into disposable syringes. Tubing leading from syringes containing lipids and mRNA are attached to the T junction, and tubing leading from the syringe containing citrate buffer alone is paired with the tubing exiting the T-junction over a collection vessel containing a stir bar on an active stir plate. Syringes are placed in a syringe pump set to expel contents at a flow rate of 1 ml per minute.
The pump is activated, and the collected mRNA in lipid nanoparticles is transferred to SnakeSkin dialysis tubing (10,000 MWCO, Thermo Scientific). Material is dialyzed against RNAse- and pyrogen-free 1× phosphate buffered saline overnight at 4° C.
Percent encapsulation of mRNA in lipid nanoparticles is determined using the Quant-iT Ribogreen RNA Assay kit (Life Technologies). The LNP-mRNA suspension is assayed in buffer (mRNA outside the particle), and buffer plus Triton X-100 detergent (total mRNA). The difference calculated is the mRNA inside the particle. Prepare a 1000 ng/mL stock from the RNA provided in the kit and use this to generate a standard curve (0 ng/ml, 15.63-1000 ng/ml) in TE and TE+0.75% Triton X-100. Prepare LNP-mRNA samples in TE buffer and TE buffer +0.75% Triton X-100 with appropriate dilution so that reading is in the range of standard curve (400-2,000 fold). In a 384-well plate (Costar non-treated #3573) add 0.04 ml of standard (in duplicate) or sample (in triplicate) per well. Dilute Ribogreen reagent 240-fold in TE buffer and add 0.06 ml per well. Mix contents of wells and measure fluorescence (excitation=480 nm, emission=520 nm). Subtract background values (no RNA) from standard and test sample values and determine the concentrations of RNA in the samples using the standard curves. Determine the percent encapsulation of the sample by dividing the difference in concentrations between sample+triton and sample in buffer alone by the sample+triton concentration.
As to `CCCCCCCCCCCCC(CCOC(=O)CCCCC(OCCCCCCCC)OCCCCCCCC)OC(=O)OCCCN1CCOCC1` (centres unmarked) [Example 112, 3-(((3-morpholinopropoxy)carbonyl)oxy) pentadecyl 6,6-bis(octyloxy) hexanoate], the “% encapsulation mRNA Leptin” value is recorded as 32.9%. For the compound `CCCCCCCCCCCCC(CCOC(=O)CCCCC(OCCCCCCCC)OCCCCCCCC)OC(=O)[C@H]1CCCN1` (stereo partly drawn) [Example 119, (2R)-1-((6,6-bis(octyloxy)hexanoyl)oxy)pentadecan-3-yl pyrrolidine-2-carboxylate], the “% encapsulation mRNA Leptin” value stood at 95.7%. On to `CCCCCCCCCCCCC(CCOC(=O)CCCCC(OCCCCCCCC)OCCCCCCCC)OC(=O)OCCCN1CCN(C)CC1` (centres unmarked) [Example 110, 3-(((3-(4-methylpiperazin-1-yl)propoxy)carbonyl)oxy)pentadecyl 6,6-bis(octyloxy)hexanoate], for which the “% encapsulation mRNA Leptin” value was 59.3%. To `CCCCCCCCCCCCC(CCOC(=O)CCCCC(OCCCCCCCC)OCCCCCCCC)OC(=O)OCCCN1CCCCC1` (centres unmarked) [Example 107, 3-(((3-(piperidin-1-yl)propoxy)carbonyl)oxy)pentadecyl 6,6-bis(octyloxy)hexanoate] belongs 94.5%; to `CCCCCCCCCCCCC(OC(=O)OCCCN(CC)CC)C(=O)OC(COC(=O)CCCCCCC)COC(=O)CCCCCCC` (centres unmarked) [Example 100, 2-((2-(((3-(diethylamino)propoxy)carbonyl)oxy)tetradecanoyl)oxy)propane-1,3-diyl dioctanoate)], 91.5%; to `CCCCCCCCCCCCC(CCCOC(=O)CCCCC(COC(=O)CCCCCCC)COC(=O)CCCCCCC)OC(=O)O[C@@H]1CCN(C)C1` (stereo partly drawn) [Example 135, 2-(5-((4-(((((R)-1-methylpyrrolidin-3-yl)oxy)carbonyl)oxy)hexadecyl)oxy)-5-oxopentyl)propane-1,3-diyl dioctanoate], 96.2%. With `CCCCCCCCOC(CCCCC(=O)OCCC(CCCCCCCC)OC(=O)OCCCN(CC)CC)OCCCCCCCC` (centres unmarked) [Example 125, 3-(((3-(diethylamino)propoxy)carbonyl)oxy)undecyl 6,6-bis(octyloxy)hexanoate], the “% encapsulation mRNA Leptin” value was 95.1%. To `CCCCCCCCCCCCC(CCOC(=O)CCCCC(OCCCCCCCC)OCCCCCCCC)OC(=O)C1(C)CCN(C)C1` (centres unmarked) [Example 120, 1-((6,6-bis(octyloxy)hexanoyl)oxy) pentadecan-3-yl 1,3-dimethylpyrrolidine-3-carboxylate] belongs 96.1%; to `CCCCCCCCCCCCC(CCOC(=O)CCCCC(OCCCCCCCC)OCCCCCCCC)OC(=O)[C@H]1CCCN1C` (stereo partly drawn) [Example 117, (2R)-1-((6,6-bis(octyloxy)hexanoyl)oxy) pentadecan-3-yl 1-methyl pyrrolidine-2-carboxylate], 5.0%; to `CCCCCCCCCCCCC(CCOC(=O)OCCCC(OCCCCCCCC)OCCCCCCCC)OC(=O)OCCCN(CC)CC` (centres unmarked) [Example 130, 4,4-bis(octyloxy)butyl (3-(diethylamino)propyl) pentadecane-1,3-diyl dicarbonate], 97.8%. Consider `CCCCCCCCCCCCC(CCOC(=O)CCCCC(OCCCCCCCC)OCCCCCCCC)OC(=O)CCC1CCN(C)CC1` (centres unmarked) [Example 121, 3-((3-(1-methylpiperidin-4-yl)propanoyl)oxy)pentadecyl 6,6-bis(octyloxy)hexanoate], for which the “% encapsulation mRNA Leptin” value was 71.2%. As to `CCCCCCCCCCCCC(CCOC(=O)CCCCC(OCCCCCCCC)OCCCCCCCC)OC(=O)C1(C)CCN(C)CC1` (centres unmarked) [Example 122, 1-((6,6-bis(octyloxy)hexanoyl)oxy) pentadecan-3-yl 1,4-dimethylpiperidine-4-carboxylate], the “% encapsulation mRNA Leptin” value amounted to 97.5%. For the compound `CCCCCCCCCCC(CCOC(=O)CCCCC(OCCCCCCCC)OCCCCCCCC)OC(=O)OCCCN(CC)CC` (centres unmarked) [Example 126, 3-(((3-(diethylamino)propoxy)carbonyl)oxy)tridecyl 6,6-bis(octyloxy)hexanoate], the “% encapsulation mRNA Leptin” value turned out to be 97.4%. On to `CCCCCCCCCCCCCC(=O)OCC(COC(=O)CCCCCCCCCCCCC)OC(=O)CCC(CCCCCCCCCCCC)OC(=O)OCCCN(C)CC` (centres unmarked) [Example 86, 2-((4-(((3-(ethyl(methyl)amino)propoxy)carbonyl)oxy)hexadecanoyl)oxy)propane-1,3-diyl ditetradecanoate], for which the “% encapsulation mRNA Leptin” value is given as 68.5%. In the case of `CCCCCCCCCCCCC(CCOC(=O)CCCCC(OCCCCCCCC)OCCCCCCCC)OC(=O)OCC1CCN(C)CC1` (centres unmarked) [Example 111, 3-((((1-methylpiperidin-4-yl)methoxy)carbonyl)oxy)pentadecyl 6,6-bis(octyloxy)hexanoate], the “% encapsulation mRNA Leptin” value was 74.7%. `CCCCCCCCCCCCC(CCOC(=O)CCCCC(OCCCCCCCC)OCCCCCCCC)OC(=O)[C@@H]1CCCN1C` (stereo partly drawn) [Example 118, (2S)-1-((6,6-bis(octyloxy)hexanoyl)oxy)pentadecan-3-yl 1-methylpyrrolidine-2-carboxylate]: the “% encapsulation mRNA Leptin” value was found to be 12.8%. Regarding `CCCCCCCC(=O)OCCCCCCCCCCC(CCOC(=O)CCCCCC(CCCCCC)CCCCCC)OC(=O)OCCCN(C)C` (centres unmarked) [Example 64, 3-(((3-(dimethylamino)propoxy)carbonyl)oxy)-13-(octanoyloxy)tridecyl 7-hexyltridecanoate], the “% encapsulation mRNA Leptin” value was determined as 93.0%. In the case of `CCCCCCCCCCCCC(CCOC(=O)OCCCN(CC)CC)OC(=O)CCCCC(COC(=O)CCCCCCC)COC(=O)CCCCCCC` (centres unmarked) [Example 142, 2-(12-dodecyl-3-ethyl-8,14-dioxo-7,9,13-trioxa-3-azaoctadecan-18-yl)propane-1,3-diyl dioctanoate], the “% encapsulation mRNA Leptin” value was determined as 92.5%. As to `CCCCCCCCCCCCC(CCOC(=O)CCCCC(OCCCCCCCC)OCCCCCCCC)OC(=O)OCCN(CC)CC` (centres unmarked) [Example 113, 3-(((2-(diethylamino)ethoxy)carbonyl)oxy)pentadecyl 6,6-bis(octyloxy)hexanoate], the “% encapsulation mRNA Leptin” value was determined as 37.5%. For `CCCCCCCCCCCCC(CCOC(=O)CCC(OCCCCCCCC)OCCCCCCCC)OC(=O)OCCCN(C)C` (centres unmarked) [Example 106, 3-(((3-(dimethylamino)propoxy)carbonyl)oxy)pentadecyl 4,4-bis(octyloxy)butanoate] the value was 96.3%. For `CCCCCCCCCCCCC(CCCOC(=O)CCCCC(COC(=O)CCCCCCC)COC(=O)CCCCCCC)OC(=O)O[C@H]1CCN(C)C1` (stereo partly drawn) [Example 134, 2-(5-((4-(((((S)-1-methylpyrrolidin-3-yl)oxy)carbonyl)oxy)hexadecyl)oxy)-5-oxopentyl)propane-1,3-diyl dioctanoate] the value was 96.6%; for `CCCCCCCC/C=C\CCCCCCCC(=O)OCC(COC(=O)CCCCCCC/C=C\CCCCCCCC)OC(=O)CCC(CCCCCCCCCCCC)OC(=O)OCCCN(C)C` (centres unmarked) [Example 83, (Z)-2-((4-(((3-(dimethylamino)propoxy)carbonyl)oxy)hexadecanoyl)oxy)propane-1,3-diyl dioleate], 48.9%; for `CCCCCCCCCCCCC(CCC(=O)OC(COC(=O)CCCCCCCCCCC)COC(=O)CCCCCCCCCCC)OC(=O)OCCCN(C)CC` (centres unmarked) [Example 89, 2-((4-(((3-(ethyl(methyl)amino)propoxy)carbonyl)oxy)hexadecanoyl)oxy)propane-1,3-diyl didodecanoate], 87.0%. For the compound `CCCCCCCCCCCCC(CCOC(=O)CCCCC(OCCCCCCCC)OCCCCCCCC)OC(=O)OCCCN1CCNCC1` (centres unmarked) [Example 108, 3-(((3-(piperazin-1-yl)propoxy)carbonyl)oxy)pentadecyl 6,6-bis(octyloxy)hexanoate], the “% encapsulation mRNA Leptin” value stood at 94.6%. To `CCCCCCCCCCCCC(CCOC(=O)CCCCC(OCCC(CC)CC)OCCC(CC)CC)OC(=O)OCCCN(C)C` (centres unmarked) [Example 116, 3-(((3-(dimethylamino)propoxy)carbonyl)oxy)pentadecyl 6,6-bis((3-ethylpentyl)oxy)hexanoate] belongs 93.3%; to `CCCCCCCCCCCCC(CCC(=O)OC(COC(=O)CCCCCCC)COC(=O)CCCCCCC)OC(=O)OCCCN(C)CC` (centres unmarked) [Example 93, 2-((4-(((3-(ethyl(methyl)amino)propoxy)carbonyl)oxy)hexadecanoyl)oxy)propane-1,3-diyl dioctanoate], 82.0%.
